Experimental data from US20030003440A1, “Novel CCR5 epitope and antibodies against it” (priority 2001, published 2003).

Legend:
[1] = tested on: anti-CCR5 Abs; experiment: Epitope mapping of anti-CCR5 Abs on peptide/beads, assayed in the Mip1β binding inhibition assay; set-up: species or system human; conditions: for Binding of anti-CCR5 Abs to peptide: Abs from ESN sera bound to peptide/beads, eluted, tested in Mip1β binding inhibition assay, FIG. 1
Protocol: Coupling of CCR5 peptides to tosyl-activated Dynabeads M280 (Dynal, Oslo, Norway) was obtained following standard procedures. Briefly, 3×10^7 beads were incubated with 9 μg of CCR5 peptides in 50 mM borate buffer pH 9,5 (16 h at 37° C.). After 4 washes in PBS, peptide/beads were ready for use.
Binding of anti-CCR5 specific Igs to peptide/beads was obtained by incubating 9 μg Ig's to 9 μg peptide/beads for 1 h at 4° C. Ig's were eluted in 0.5 M acetic acid, dialyzed against RPMI medium, then tested in Mip1β binding assays and/or in HIV neutralization assays. To establish if the region recognized by anti-CCR5 antibodies corresponds to a conformational epitope, the specific peptide/beads were incubated with 10 mM of βME, and subsequently with 300 mM of N-Ethyl Maleimide (final concentration: 30 mM) for 60 min prior to antibody binding.
The assay was performed as described (Trkola, A. et al., 1996, Nature 384:184). Briefly, 10^6 purified CD4^+ cells in 200 μl of RPMI (Gibco-Life Technologies, Milan, Italy)(containing 0.05 M NaN3, 1% BSA and 25 mM HEPES) were incubated with appropriate dilutions of affinity-purified anti-CCR5 Abs (Example 1); after 45 min of incubation ^125I-Mip1β (Dupont-NEN, Mechelem, Belgium) was added (final concentration 0.1 nM, 0.2 μCi), and the cells were further incubated for 2 h on ice. Unbound radioactivity was separated by centrifugation on a two-step gradient (Grassi, F. et al., 1991, J. Exp. Med. 174:53) in 0.3 ml tubes (Nunc, Roskilde, Denmark) as follows: the lower layer consisted of fetal calf serum (FCS) containing 10% sucrose; the upper layer consisted of 80% silicone (Sigma-Aldrich) and 20% mineral oil (Sigma-Aldrich). The bound radioactivity in the cell pellets was measured in a gamma counter. Serum samples were diluted 1:10 (5 replicas for each sample). A specificity control consisting of a 100-fold excess of unlabeled Mip1β was included in all experiments. The binding of the ^125I-Mip1β to activated CD4^+ cells ranged between 1000 and 6000 CPM. The cut-off value was set at 12% (3 SD above the mean value of the 45 USN serum samples).

[2] = target: T1, peptide 3 from CCR5 (Homo sapiens, UniProt P51681); experiment: Immunization of mice with KLH-conjugated peptide; binding of mice sera to peptide 3 by ELISA; type: in vivo; conditions: BALB/c mice, i.p. every 15 days, three immunizations, KLH conjugate 50 μg/dose; FIG. 3
T1 construct: made in house; host or cells: chemical solid-phase synthesis
Protocol: BALB/c mice were immunized i.p. every 15 days with peptide 3 or with an unrelated control peptide (VQGEESNDK); both peptides had previously been conjugated to KLH (50 μg/dose). Serum was monitored for the presence of antibodies against the immunogens. After three immunizations the mice were sacrificed and sera were tested in direct binding on pep 3.
Binding of mice sera to peptide 3 was obtained by ELISA. Microwells plates were coated with Beads/pep 3 (10^7beads). The plates were satured for 1 h with PBS and 3% BSA. Different dilutions of mice antisera ( 1/10, 1/50, 1/250 and 1/1000) were added and incubated for 2 h at r.t. […] The enzimatic reaction was developed and read at 492 nm.

Row | Substance | Binding of anti-CCR5 Abs to peptide [1] | Binding on pep 3 of sera of immunized mice (ELISA) [2] | Binding of anti-CCR5 Abs to peptide after reduction and alkylation ([1]; addition of 2-ME and N-ethyl maleimide)
1 | CSSHFPYSQYQFWKNFQTLKc [compound 4] | no binding |  | 
2 | FQEFFGLNNCSSSNR [compound 5, peptide of the extramembrane region of CCR5] | no binding |  | 
3 | VQGEESNDK [control peptide, unrelated control peptide conjugated to KLH, reference compound] |  | no binding | 
4 | YYTSEPCQKINVKQIAARLLP [compound 2, peptide of the extramembrane region of CCR5] | no binding |  | 
5 | cMDYQVSSPIYDINYYTSEPC [compound 1] | no binding |  | 
6 | cYAAAQWDFGNTMCQ (N-terminal Cys added; UniProt P51681 89-102, looked up, fragment) [peptide 3, second external domain of CCR5 (first cysteine loop, aa 89-102) with Cys added at the N-terminus] | Specific Ab binding | specific binding | abolished
